Laboratory results from US10869884B2, “Cyclodextrin based polymers, methods, compositions and applications thereof” (ATEN PORUS LIFESCIENCES, priority 2016, dated 2020).

Assays:
Format in all cases: in vivo, BALB/c mice
[1] = test system: ADR-induced nephropathy; experiment: Kidney histopathology (H/E and PAS staining, mesangial expansion) in the Adriamycin nephropathy model; conditions: ADR mice, 40 mg/kg/day s.c. (group 3), 10 weeks
Description: (§1) Experimental Protocol: 6 animals (BALB/c mice) per group of 6-7 weeks of age were used. Nephropathy was induced in all animals, except group 1 (normal control), with Adriamycin (ADR, 11 mg/kg, i.v., single dose) at dose volume of 6 ml/kg. Normal saline (0.9%) was used as vehicle for the reference and test compounds. Treatment was started 24 hours after Adriamycin injection. Groups of animals (n=6) were treated subcutaneously with vehicle, HBCD, Polymer A and Polymer B at the doses and regimens shown in FIG. 10, for 10 weeks. At the end of the study, animals were sacrificed by CO2 exposure, blood samples and kidneys were collected for the estimation of various biomarkers in serum.
Histopathology: At the end of the study, kidney samples were collected from each animal, fixed in 10% NBF (Neutral Buffered […]) and subjected to histopathology. Periodic acid-Schiff (PAS) or Hematoxylin and Eosin (H/E) staining of 4 micron-thick tissue sections was performed according to the standard protocols. Mesangial expansion area was determined based on the area of PAS staining.

[2] = test system: ADR-induced nephropathy; experiment: Serum blood urea nitrogen (BUN) in the Adriamycin nephropathy (FSGS) model; conditions: ADR mice, 40 mg/kg/day s.c., end of study
Description: as §1
Serum Analysis: Serum samples were analysed in an Automated Clinical Chemistry Analyzer EM360, Transasia Bio-medicals Ltd, for albumin and creatinine. • (a) Blood Urea Nitrogen (BUN) assay to assess the level of kidney function was analysed by the GLDH Urease method using an Erba standard BUN kit. (FIG. 13). Administration of ADR to induce nephropathy increased blood urea nitrogen levels as one would expect from an impaired kidney. […] The combination of data from these studies serves to illustrate the potential of the polymers of the present disclosure as treatment options for kidney disease compared to known cholesterol clearance compounds.

[3] = Body weight in the Adriamycin nephropathy (FSGS) dose response/frequency study; conditions: ADR mice, 40 mg/kg/day s.c., 10 weeks, compared to normal mice
Description: as §1
Body weights: Body weights were measured at the beginning of study and weekly throughout for ten weeks (FIG. 11) to provide a general assessment of rodent health after therapy.

hydroxypropyl β-cyclodextrin [HBCD]
kidney histopathology (glomeruli appearance) [1]: glomeruli that are normal in appearance | serum blood urea nitrogen (BUN) level [2]: BUN levels return to that found for the control group | mean body weight [3]: largest drop in mean body weight without any substantial rebound
